Legend:
[1] = two compartment model, nonlinear regression fit
[2] = man and rodents; cited from earlier work
in vivo = settings: Sprague Dawley, rat, intravenous, 10 mg DTX equivalent/kg
[3] = rat, in vivo
[4] = rat, in vivo; remark: listed apart in the source
[5] = rat, in vivo; remark: listed apart in the source

| CLD (distribution clearance) [1] | VC (volume of the central compartment) [1] | VP (volume of the peripheral compartment) [1] | Vmax (nonlinear clearance, all remaining routes) [1] | clearance (in vivo; plasma and bile) | Km (in vivo; plasma) | tissue distribution phase half-life (t1/2) [3] | CL ([3]; iv) | V (apparent volume of distribution) ([3]; iv) | t1/2 (terminal elimination half-life) ([3]; iv) | percentage of the total 8h biliary metabolites excreted as HDTX (%HDTX) [4] | cumulative 24h urinary DTX excretion [5] | Molecule | renal clearance contribution to DTX clearance [2] |
| --- | --- | --- | --- | --- | --- | --- | --- | --- | --- | --- | --- | --- | --- |
| 2202 mL/h | 760 mL | 5811 mL | 391464 ng/h | 3.53 mL/min | 0.124 µg/mL | – | – | – | – | – | – | CC(=O)O[C@@]12CO[C@@H]1C[C@H](O)[C@@]1(C)C(=O)[C@H](O)C3=C(C)[C@@H](OC(=O)[C@H](O)[C@@H](NC(=O)OC(C)(C)C)c4ccccc4)C[C@@](O)([C@@H](OC(=O)c4ccccc4)[C@H]21)C3(C)C [DTX, Docetaxel] | < 10% |
| – | – | – | – | – | – | ~ 30 min | 5.2 L/h/kg | 3401 mL/kg | 3 h | 82±12% | 2.36 ± 0.98 % injected dose | Taxotere | – |

From article PMC3788091 (Journal of controlled release : official journal of the …, 2013)
